According to ChEMBL document CHEMBL1201862, “PubChem BioAssay data set” (2004):
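Cells were grown in 96-well plates and exposed to each compound for 48 hours at five concentrations; endpoints were interpolated linearly between bracketing concentrations, or set to the highest concentration if not reached. GI50 = concentration required for 50% inhibition of growth.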 Activity calls are given as the source filed them. No stated cut-off is given here; in the data, active = GI50 up to about 1.1 µM and inactive = higher.

Columns and labels:
Test in all cases: DTP human tumour cell line panel, 48 h
LOX IMVI = test system: LOX IMVI
MDA-N = test system: MDA-N
EKVX = test system: EKVX
SW-620 = test system: SW-620
SNB-19 = test system: SNB-19
A498 = test system: A498
OVCAR-5 = test system: OVCAR-5
SK-OV-3 = test system: SK-OV-3
OVCAR-8 = test system: OVCAR-8
NCI/ADR-RES = test system: NCI/ADR-RES
SK-MEL-5 = test system: SK-MEL-5
786-0 = test system: 786-0
HOP-92 = test system: HOP-92
HCT-116 = test system: HCT-116
DU-145 = test system: DU-145
MDA-MB-435 = test system: MDA-MB-435
RPMI-8226 = test system: RPMI-8226
SNB-75 = test system: SNB-75
KM12 = test system: KM12
HOP-62 = test system: HOP-62

| Compound | GI50 (LOX IMVI) | GI50 (MDA-N) | GI50 (EKVX) | GI50 (SW-620) | GI50 (SNB-19) | GI50 (A498) | GI50 (OVCAR-5) | GI50 (SK-OV-3) | GI50 (OVCAR-8) | GI50 (NCI/ADR-RES) | GI50 (SK-MEL-5) | GI50 (786-0) | GI50 (HOP-92) | GI50 (HCT-116) | GI50 (DU-145) | GI50 (MDA-MB-435) | GI50 (RPMI-8226) | GI50 (SNB-75) | GI50 (KM12) | GI50 (HOP-62) |
| --- | --- | --- | --- | --- | --- | --- | --- | --- | --- | --- | --- | --- | --- | --- | --- | --- | --- | --- | --- | --- |
| CC(=O)OCc1cc(=O)n2c([nH]c3ccccc32)c1C#N | 68.7 µM (inactive) | > 100 µM (inactive) | 72.3 µM (inactive) | 96.6 µM (inactive) | 80.2 µM (inactive) | 69.2 µM (inactive) | > 100 µM (inactive) | 80.7 µM (inactive) | > 100 µM (inactive) | > 100 µM (inactive) | 49.9 µM (inactive) | 40.6 µM (inactive) | 84.3 µM (inactive) | 51.3 µM (inactive) | 68.7 µM (inactive) | – | – | – | – | – |
| Clc1cc2nc(C3CCCO3)[nH]c2cc1Cl (stereo not given) | 35.4 µM (inactive) | 20.1 µM (inactive) | 87.5 µM (inactive) | 45.8 µM (inactive) | > 100 µM (inactive) | – | > 100 µM (inactive) | 69.2 µM (inactive) | 57.9 µM (inactive) | 43.5 µM (inactive) | 35.9 µM (inactive) | > 100 µM (inactive) | 85.3 µM (inactive) | 39.2 µM (inactive) | – | 28.2 µM (inactive) | 72.8 µM (inactive) | 30.1 µM (inactive) | 32.7 µM (inactive) | > 100 µM (inactive) |
| Cc1ccc(NCCN(C)C)c2c(=O)c3cc(O)ccc3sc12 | 1.05 µM (active) | 2.04 µM (inactive) | 12.4 µM (inactive) | 1.19 µM (inactive) | 2.64 µM (inactive) | 6.79 µM (inactive) | 15.3 µM (inactive) | 3.33 µM (inactive) | 2.44 µM (inactive) | – | 2.86 µM (inactive) | 1.94 µM (inactive) | 2.38 µM (inactive) | 1.96 µM (inactive) | 2.18 µM (inactive) | 1.53 µM (inactive) | 2.57 µM (inactive) | 1.34 µM (inactive) | 4.28 µM (inactive) | 0.586 µM (active) |
| OC(c1ccsc1)c1cc2ccccc2s1 (stereo not given) | > 10 µM (inactive) | > 10 µM (inactive) | > 10 µM (inactive) | > 10 µM (inactive) | > 10 µM (inactive) | – | > 10 µM (inactive) | > 10 µM (inactive) | > 10 µM (inactive) | > 10 µM (inactive) | > 10 µM (inactive) | > 10 µM (inactive) | > 10 µM (inactive) | > 10 µM (inactive) | > 10 µM (inactive) | > 10 µM (inactive) | > 10 µM (inactive) | > 10 µM (inactive) | > 10 µM (inactive) | > 10 µM (inactive) |
| O=C(O)c1ccccc1SCc1cccc2c(=O)c3ccc(Cl)cc3oc12 | > 50 µM (inactive) | > 50 µM (inactive) | > 50 µM (inactive) | > 50 µM (inactive) | – | > 50 µM (inactive) | > 50 µM (inactive) | > 50 µM (inactive) | > 50 µM (inactive) | > 50 µM (inactive) | > 50 µM (inactive) | 25.3 µM (inactive) | – | 36.1 µM (inactive) | – | > 50 µM (inactive) | > 50 µM (inactive) | 15.6 µM (inactive) | > 50 µM (inactive) | 12.9 µM (inactive) |
| CCOC(=O)C1(C)CCCc2sc(N)c(C#N)c21 (stereo not given) | – | > 100 µM (inactive) | > 100 µM (inactive) | > 100 µM (inactive) | > 100 µM (inactive) | > 100 µM (inactive) | > 100 µM (inactive) | – | > 100 µM (inactive) | – | > 100 µM (inactive) | > 100 µM (inactive) | > 100 µM (inactive) | > 100 µM (inactive) | – | – | > 100 µM (inactive) | 69 µM (inactive) | > 100 µM (inactive) | > 100 µM (inactive) |
| CSc1nc2c(=O)n(-c3ccccc3)c(=S)n(-c3ccccc3)c2s1 | 82 µM (inactive) | > 100 µM (inactive) | – | > 100 µM (inactive) | 14.2 µM (inactive) | – | > 100 µM (inactive) | 81.3 µM (inactive) | > 100 µM (inactive) | 85.1 µM (inactive) | > 100 µM (inactive) | 25.9 µM (inactive) | 25.4 µM (inactive) | > 100 µM (inactive) | > 100 µM (inactive) | > 100 µM (inactive) | > 100 µM (inactive) | 41.6 µM (inactive) | 49 µM (inactive) | 42 µM (inactive) |
| CCNC(=O)Nc1cccc(C)n1 | – | > 100 µM (inactive) | 15.7 µM (inactive) | > 100 µM (inactive) | > 100 µM (inactive) | > 100 µM (inactive) | > 100 µM (inactive) | > 100 µM (inactive) | > 100 µM (inactive) | – | > 100 µM (inactive) | > 100 µM (inactive) | > 100 µM (inactive) | > 100 µM (inactive) | > 100 µM (inactive) | > 100 µM (inactive) | – | 68.9 µM (inactive) | > 100 µM (inactive) | 91.4 µM (inactive) |
| CC1CC/C(=C\c2ccc(N(C)C)cc2)C(=O)/C1=C/c1ccc(N(C)C)cc1 (stereo not given) | > 100 µM (inactive) | > 100 µM (inactive) | > 100 µM (inactive) | > 100 µM (inactive) | – | > 100 µM (inactive) | > 100 µM (inactive) | > 100 µM (inactive) | > 100 µM (inactive) | > 100 µM (inactive) | > 100 µM (inactive) | > 100 µM (inactive) | – | > 100 µM (inactive) | – | > 100 µM (inactive) | – | > 100 µM (inactive) | > 100 µM (inactive) | > 100 µM (inactive) |
| C=CCOC(=O)CC[N+]1=CCC(c2ccccc2)(c2ccccc2)O1 | – | > 100 µM (inactive) | > 100 µM (inactive) | > 100 µM (inactive) | > 100 µM (inactive) | > 100 µM (inactive) | > 100 µM (inactive) | > 100 µM (inactive) | > 100 µM (inactive) | – | > 100 µM (inactive) | > 100 µM (inactive) | > 100 µM (inactive) | > 100 µM (inactive) | > 100 µM (inactive) | > 100 µM (inactive) | – | – | > 100 µM (inactive) | > 100 µM (inactive) |
| O=C(O)C1CCCCN1CCc1c[nH]c2ccccc12 (stereo not given) | > 100 µM (inactive) | > 100 µM (inactive) | > 100 µM (inactive) | > 100 µM (inactive) | > 100 µM (inactive) | – | > 100 µM (inactive) | > 100 µM (inactive) | > 100 µM (inactive) | > 100 µM (inactive) | – | > 100 µM (inactive) | 30.7 µM (inactive) | > 100 µM (inactive) | > 100 µM (inactive) | > 100 µM (inactive) | > 100 µM (inactive) | > 100 µM (inactive) | > 100 µM (inactive) | > 100 µM (inactive) |
| O=c1cnc2cc3ccccc3cc2[nH]1 | > 100 µM (inactive) | > 100 µM (inactive) | 1.57 µM (inactive) | > 100 µM (inactive) | 71.6 µM (inactive) | > 100 µM (inactive) | > 100 µM (inactive) | > 100 µM (inactive) | > 100 µM (inactive) | > 100 µM (inactive) | > 100 µM (inactive) | > 100 µM (inactive) | > 100 µM (inactive) | > 100 µM (inactive) | – | > 100 µM (inactive) | > 100 µM (inactive) | 37.8 µM (inactive) | > 100 µM (inactive) | > 100 µM (inactive) |
| CC(C)(C)C(=O)OC(N)/C=C/c1ccccc1 (stereo not given) | – | > 100 µM (inactive) | > 100 µM (inactive) | > 100 µM (inactive) | – | > 100 µM (inactive) | > 100 µM (inactive) | > 100 µM (inactive) | > 100 µM (inactive) | > 100 µM (inactive) | > 100 µM (inactive) | > 100 µM (inactive) | > 100 µM (inactive) | > 100 µM (inactive) | – | > 100 µM (inactive) | > 100 µM (inactive) | > 100 µM (inactive) | > 100 µM (inactive) | > 100 µM (inactive) |
| Cc1ccc(/C=C/C(=O)Oc2ccc(/C=C3\CCC/C(=C\c4ccc(OC(=O)/C=C/c5ccc(C)cc5)cc4)C3=O)cc2)cc1 | > 100 µM (inactive) | > 100 µM (inactive) | > 100 µM (inactive) | > 100 µM (inactive) | 56.8 µM (inactive) | – | > 100 µM (inactive) | – | 67.1 µM (inactive) | 59.3 µM (inactive) | > 100 µM (inactive) | 16.7 µM (inactive) | 77.6 µM (inactive) | > 100 µM (inactive) | > 100 µM (inactive) | > 100 µM (inactive) | > 100 µM (inactive) | 14.2 µM (inactive) | > 100 µM (inactive) | 29.1 µM (inactive) |
| CCOC(=O)CCCSCCCC(=O)CCCSCCCC(=O)OCC | > 100 µM (inactive) | > 100 µM (inactive) | > 100 µM (inactive) | > 100 µM (inactive) | > 100 µM (inactive) | – | > 100 µM (inactive) | > 100 µM (inactive) | > 100 µM (inactive) | > 100 µM (inactive) | > 100 µM (inactive) | > 100 µM (inactive) | > 100 µM (inactive) | > 100 µM (inactive) | > 100 µM (inactive) | > 100 µM (inactive) | – | > 100 µM (inactive) | > 100 µM (inactive) | > 100 µM (inactive) |
| CCOC(=O)N1CCC2C(=C(C)C(C)C3=C2C(=O)c2ccccc2C3=O)C1 (stereo not given) | 3.61 µM (inactive) | 3.33 µM (inactive) | > 10 µM (inactive) | 3.61 µM (inactive) | – | – | – | > 10 µM (inactive) | 6.18 µM (inactive) | – | 1.77 µM (inactive) | 4.61 µM (inactive) | 5.41 µM (inactive) | – | 2.45 µM (inactive) | 2.25 µM (inactive) | 3.79 µM (inactive) | 3.75 µM (inactive) | 5.81 µM (inactive) | 4.1 µM (inactive) |
